Measurements from patent publication US20120214824A1, “PROTEOSTASIS REGULATORS” (priority 2010, published 2012).

Experiments:
HMOX1 = test: Multigene assay (QuantiGene Plex 2.0), human HeLa cell line; type: cell-based; conditions: 6 hours post-compound treatment, Table 7
SQSM = test: as above; type: cell-based; conditions: 6 hours post-compound treatment, Table 7
Description: (§1) This assay used the QuantiGene Plex 2.0 Reagent System from Affymetrix. This assay combines the use of bDNA (branch DNA) and xMAP magnetic capture beads from Luminex Technologies to quantitatively and simultaneously detect multiple mRNA transcripts per well. The overall procedure was performed according to the QuantiGene Plex 2.0 Reagent System instruction manual from Affymetrix.
(§2) Cells were seeded at a density of 12,000 cells/well in 96-well plates with an overnight incubation at 37° C., 5% CO2. Cells were treated with serially diluted compounds in a 7-point dose dependent manner. Cell lysis with 50% [v/v] Panomics Lysis Mixture (Lysis Mixture+10 μl/ml 25 Proteinase K) was performed 6 hours post-compound treatment. Lysed cells were heated at 50° C. to ensure appropriate lysing and the plates were then frozen at −80° C. Cell lysates, thawed at room temperature on the day of the assay, were pooled with mouse 8-gene multiplex probe sets and with 8 different sets of magnetic capture beads (Luminex Technology, Austin, Tex.) in a 100 μl/well volume. Biomek FX was used at every liquid transfer step. The eight plates containing lysate-probe-bead mixtures were incubated at 54° C.±1° C. on a shaking platform for an overnight incubation in the dark (18-20 hours). The following day the hybridization plates were compressed by transferring the hybridized lysates into a single magnetic capture plate. The plate was kept on a magnet to hold the beads and then washed with Panomics Wash Buffer 2.0 on a BioTek ELx405 select plate washer to remove any unbound sample. This step was followed by serial hybridizations and washings of the bDNA pre-amplifier (1 hour, 50° C.), bDNA amplifier (1 hour, 50° C.), label probe (1 hour, 50° C.), and streptavidin-phycoerythrin (SAPE, 30 minutes, room temperature). (Zhang, A. et al. Small interfering RNA and gene expression analysis using a multiplex branched DNA assay without RNA purification. J Biomol Screen 10, 549-56 (2005)). The plate was then washed with SAPE wash buffer to remove unbound SAPE and each well was analyzed with the Luminex FlexMap3D (Luminex, Austin, Tex.). SAPE fluorescence measured from each bead was proportional to the number of mRNA transcripts captured by the beads (Zheng, Z., Luo, Y. & McMaster, G. K. Sensitive and quantitative measurement of gene expression directly from a small amount of whole blood. Clin Chem 52, 1294-302 (2006)). Fold changes in gene expression were obtained for each gene per well by normalizing the raw data first to the DMSO control and then to a housekeeping gene (TBP-TATA binding protein or Tub1-alpha-tubulin).

Hspa1a [1] = test: as above; type: cell-based; conditions: 6 hours post-compound treatment, Table 7
Description: as §1, §2

GCLM [2] = test: as above; type: cell-based; conditions: 6 hours post-compound treatment, Table 7
Description: as §1, §2

HspA5 [3] = test: as above; type: cell-based; conditions: 6 hours post-compound treatment, Table 7
Description: as §1, §2

DDIT3 [4] = test: as above; type: cell-based; conditions: 6 hours post-compound treatment, Table 7
firefly luciferase = test: Luciferase folding assay (Lucif.); type: cell-based, human; conditions: HeLa-luciferase cells
Excerpt: Firefly luciferase is a commonly used bioluminescent reporter. This monomeric enzyme of 61 kDa catalyzes a two-step oxidation reaction to yield light, usually in the green to yellow region, typically 550-570 nm. The first step of this reaction is activation of the luciferyl carboxylate by ATP to yield a reactive mixed anhydride. In the second step, the activated intermediate reacts with oxygen to create a transient dioxetane that breaks down to the oxidized products, oxyluciferin and CO2. Upon mixing with substrates, firefly luciferase produces an initial burst of light that decays over about 15 seconds to a low level of sustained luminescence. This kinetic profile reflects the slow release of the enzymatic product, thus limiting catalytic turnover after the initial reaction.
This mammalian cell based assay that used firefly luciferase as a sensor was used to screen for compounds that may modulate the cellular folding environment.
HeLa luciferase cell lines: Frozen bullets containing the cells were thawed briefly at 37° C. then placed into a T-150 flask containing 30-35 ml DMEM medium+Penicillin/Strep (1% final+10% FBS (final)+Geneticin @ 200-500 ug/ml. Cell cultures were maintained at 37° C. with 5% CO2 and water in the bottom of the incubator to keep cells healthy. Upon expanding cell line, luciferase measurements were taken to make sure that activity levels were between 2000-5000 (RLU) when plated at 15K/well in a 96-well format (Bright-Glo Promega) before compound treatment.
Compound treatment of HeLa-luciferase cells: HeLa-luciferase WT cells were plated in a 96-well format at 15K/well the day prior to performing compound treatment and/or luciferase assay. […] Final volume used per well was 90 uL. Flat bottom, white polystyrene plates were used for plating the cells.
For compound treatment, stocks of compounds were made up at 10 mM concentration in DMSO. Stocks compounds were diluted by 100× fold in the same media used for culturing the cells—this leads to a 0.1 mM (or 100 uM) concentration. After diluting the compound in media, 10 uL of the 100 uM solution was placed into each well of cells (90 uL); making the final concentration of the compound 10 uM. If serial dilutions of compounds were tested, serial dilutions of compounds were first made in DMSO accordingly, and further diluted in the media, prior to adding to cells. This procedure allowed for constant final levels of DMSO concentrations, regardless of initial compound concentration.
Performing luciferase activity assay: Bright-Glo Luciferase Assay Reagent (Promega cat #: E2610, E2620, E2650) was thawed out at RT in a water bath. Alternatively, Bright-Glo Luciferase assay buffer (prior to mixing with substrate) was stored overnight at RT, prior to using.
Following compound treatment, plates were removed from 37° C. and allowed to acclimate to RT for 5-10 min. Bright-Glo reagent was added to each cell-containing well in a 1:1 ratio (e.g., 100 uL of Bright Glo for each 100 uL cells).
Plates were placed on a plate shaker for 5 min, removing any air bubbles on the surface (which may interfere with proper reads), and then read on an EnVision 2104 Multilabel reader, Emission filter Luminescence 700, barcode 212, WL 400-700 nm.
Data for representative compounds in this assay are shown under the heading “Lucif.”

DDIT3 [5] = test: Multigene assay (QuantiGene Plex 2.0), mouse MEF cell line; type: cell-based; conditions: 6 hours post-compound treatment
Description: as §1, §2

BCL2 = test: as above; type: cell-based; conditions: 6 hours post-compound treatment
Description: as §1, §2

HSPA1a [6] = test: as above; type: cell-based; conditions: 6 hours post-compound treatment
Description: as §1, §2

GCLM [7] = test: as above; type: cell-based; conditions: 6 hours post-compound treatment
Description: as §1, §2

HMOX = test: as above; type: cell-based; conditions: 6 hours post-compound treatment
Description: as §1, §2

TUB1 = test: as above; type: cell-based; conditions: 6 hours post-compound treatment
Description: as §1, §2

HspA5 [8] = test: as above; type: cell-based; conditions: 6 hours post-compound treatment
Description: as §1, §2

`CC1=C(C#N)C(c2ccccc2OC(C)C)C2=C(CC(c3ccc(Cl)cc3)CC2=O)N1` (centres unmarked) [C] was tested, and the HMOX1 gene induction (HMOX1) was “— (— Indicates less than 2 fold induction)”, the SQSM gene induction (SQSM) was “— (— Indicates less than 2 fold induction)” and the HSPA1a gene induction (Hspa1a [1]) was “+ (+ indicates a induction of greater than 2 fold)”. For the same molecule, the GCLM gene induction (GCLM [2]) was “— (— Indicates less than 2 fold induction)”, the HspA5 gene induction (HspA5 [3]) was “+ (+ indicates a induction of greater than 2 fold)” and the DDIT3 gene induction (DDIT3 [4]) was “+ (+ indicates a induction of greater than 2 fold)”.

`CC1=C(C(=O)OCC(C)C)C(c2ccc(F)cc2)C2=C(CC(c3ccccc3)CC2=O)N1` (centres unmarked) [drawing 27/Me/COOCH2CHMe2/p-F/H] was tested, and the “Lucif (luciferase activity induction)” value (firefly luciferase; Table 2a) was “+ (+ indicates a induction of greater than 2 fold)”, the DDIT3 gene induction (DDIT3 [5]; Table 2a) was “− (− Indicates less than 2 fold induction)” and the BCL2 gene induction (BCL2; Table 2b) was “− (− Indicates less than 2 fold induction)”. The HSPA1a gene induction (HSPA1a [6]; Table 2b) was “− (− Indicates less than 2 fold induction)”, the GCLM gene induction (GCLM [7]; Table 2a) was “− (− Indicates less than 2 fold induction)” and the HMOX gene induction (HMOX; Table 2b) was “− (− Indicates less than 2 fold induction)”. The TUB1 gene induction (TUB1; Table 2a) was “− (− Indicates less than 2 fold induction)” and the HspA5 gene induction (HspA5 [8]; Table 2b) was “− (− Indicates less than 2 fold induction)”.

With `CCCc1n[nH]c2c1C(c1ccccc1Br)C(C#N)=C(N)O2` (centres unmarked) [drawing 28/(CH2)2Me/2-Br] the “Lucif (luciferase activity induction)” value (firefly luciferase; Table 3a) was “+ (+ indicates a induction of greater than 2 fold)”, the DDIT3 gene induction (DDIT3 [5]; Table 3a) was “− (− Indicates less than 2 fold induction)” and the BCL2 gene induction (BCL2; Table 3b) was “− (− Indicates less than 2 fold induction)”. For the same molecule, the HSPA1a gene induction (HSPA1a [6]; Table 3b) was “− (− Indicates less than 2 fold induction)”, the GCLM gene induction (GCLM [7]; Table 3a) was “+ (+ indicates a induction of greater than 2 fold)” and the HMOX gene induction (HMOX; Table 3b) was “+ (+ indicates a induction of greater than 2 fold)”. The TUB1 gene induction (TUB1; Table 3a) was “− (− Indicates less than 2 fold induction)” and the HspA5 gene induction (HspA5 [8]; Table 3b) was “− (− Indicates less than 2 fold induction)”.

For `CC1=C(C#N)C(c2ccc(F)cc2)C2=C(CC(c3cccs3)CC2=O)N1` (centres unmarked) [drawing 26/Me/CN/p-F], the “Lucif. (luciferase activity induction)” value (firefly luciferase; Table 1a) was “+ (+ indicates a induction of greater than 2 fold)”, the DDIT3 gene induction (DDIT3 [5]; Table 1a) was “− (− Indicates less than 2 fold induction)” and the BCL2 gene induction (BCL2; Table 1b) was “− (− Indicates less than 2 fold induction)”. For the same molecule, the HSPA1a gene induction (HSPA1a [6]; Table 1b) was “− (− Indicates less than 2 fold induction)”, the GCLM gene induction (GCLM [7]; Table 1a) was “− (− Indicates less than 2 fold induction)” and the HMOX gene induction (HMOX; Table 1b) was “− (− Indicates less than 2 fold induction)”. The TUB1 gene induction (TUB1; Table 1a) was “− (− Indicates less than 2 fold induction)” and the HspA5 gene induction (HspA5 [8]; Table 1b) was “− (− Indicates less than 2 fold induction)”.

`CCCc1n[nH]c2c1C(c1ccccc1C(F)(F)F)C(C#N)=C(N)O2` (centres unmarked) [drawing 28/(CH2)2Me/2-CF3 #1] was tested, and the “Lucif (luciferase activity induction)” value (firefly luciferase; Table 3a) was “+ (+ indicates a induction of greater than 2 fold)”, the DDIT3 gene induction (DDIT3 [5]; Table 3a) was “− (− Indicates less than 2 fold induction)” and the BCL2 gene induction (BCL2; Table 3b) was “− (− Indicates less than 2 fold induction)”. For the same molecule, the HSPA1a gene induction (HSPA1a [6]; Table 3b) was “− (− Indicates less than 2 fold induction)”, the GCLM gene induction (GCLM [7]; Table 3a) was “+ (+ indicates a induction of greater than 2 fold)” and the HMOX gene induction (HMOX; Table 3b) was “+ (+ indicates a induction of greater than 2 fold)”. For the same molecule, the TUB1 gene induction (TUB1; Table 3a) was “− (− Indicates less than 2 fold induction)” and the HspA5 gene induction (HspA5 [8]; Table 3b) was “− (− Indicates less than 2 fold induction)”.

With `CC1=C(C#N)C(c2ccccc2OC(C)C)C2=C(CC(c3ccccc3)CC2=O)N1` (centres unmarked) [D] the HMOX1 gene induction (HMOX1) was “+ (+ indicates a induction of greater than 2 fold)”, the SQSM gene induction (SQSM) was “— (— Indicates less than 2 fold induction)” and the HSPA1a gene induction (Hspa1a [1]) was “+ (+ indicates a induction of greater than 2 fold)”. The GCLM gene induction (GCLM [2]) was “— (— Indicates less than 2 fold induction)”, the HspA5 gene induction (HspA5 [3]) was “— (— Indicates less than 2 fold induction)” and the DDIT3 gene induction (DDIT3 [4]) was “— (— Indicates less than 2 fold induction)”.
